These results are taken from patent US20230165874A1, “ANTICOAGULANT COMPOUNDS AND METHODS AND DEVICES FOR THEIR PULMONARY USE” (priority 2020, published 2023).

Values after ≈ are worked out from the molar mass of the structure shown. Structures can show the parent of a compound that is named as a salt.

Series [1] is described as follows: in vivo. The arrangement: species or system Sprague-Dawley rats. The conditions noted are these: male, Sprague-Dawley, rat; for Tmax: inhaled or intranasal. As for the experimental part:
At their assigned time-point, rats were anesthetized and subjected to exsanguination via an abdominal vessel and gross necropsy. Whole blood (two ˜1.5 ml aliquots, K2EDTA) was collected. The whole blood was stored frozen at −60° C. or lower until shipped overnight with dry ice for further evaluation.
Whole blood (two ˜100 μL aliquots, K2EDTA) was collected from the catheter of conscious rats for systemic pharmacokinetics (PK) at the time-points. Whole blood samples were stored at −60° C. or lower until shipped overnight on dry ice for further evaluation.

Details of series [2]: species or system Sprague-Dawley rats. The conditions noted are these: male, Sprague-Dawley, rat, in vivo. As for the experimental part:
The lungs were removed and divided into left and right lung. Each half of the lung was weighed and placed in separate vials (for Pharmacokinetics analysis), snap frozen in liquid nitrogen and stored frozen at −60° C. or lower until shipped overnight on dry ice for further evaluation.
Each half of the lung was weighed and placed in separate vials (for Pharmacokinetics analysis), snap frozen in liquid nitrogen and stored frozen at −60° C. or lower until shipped overnight on dry ice to the sponsor for further evaluation.

Series [3] has as its system Calcium-reconstituted sheep blood. The experiment in a line: Activated clotting time (ACT), Hemochron Response. Format: biochemical. The conditions noted are these: individual drug at 0.6 ng/mg. As for the experimental part:
The activated clotting time (ACT) evaluation of anticoagulants was performed in Calcium-reconstituted sheep blood and recorded employing the Hemochron® Response device. […] A target amount of drug solution was then added into the test tube. […] The tube was gently shaken before being inserted into the Hemochron Response detector. The ACT read out was recorded and reported. The ACT of the control blood in the absence of any drug as first determined to establish a baseline. Then ACT was determined in the presence of different concentrations of the drug as a single component. Selected drug combinations, were then tested to evaluate for potential synergy in action between the two drugs.

The nature of series [4]: Solubility in water / aqueous buffer / Captisol.
For series [5], the system named is porcine coronary artery. The experiment in a line: Histopathology scores (fibrin, injury, inflammation) of stented porcine coronary arteries. The conditions noted are these: for inhibiting fibrin formation compared to bare metal control stents: at 7 days, released from stents.
Series [6] is described as follows: in vivo. The conditions noted are these: pig, whole blood.
The nature of series [7]: Whole blood PK of drug eluting stents. The conditions noted are these: for concentration at 180 min: 180 min. (3 hr); for concentration at 60 min: 60 min. (1 hr); for concentration at 120 min: 120 min. (2 hr).
Series [8] relates to porcine coronary artery. The experiment in a line: Quantitative coronary angiography (late lumen loss, diameter stenosis) after stent implantation. The conditions noted are these: at 7 days, released from stents.
A short description of series [9]: Coated balloon tissue drug concentration in vivo (LCMS). The arrangement: species or system porcine. The conditions noted are these: pig, 300 μg. The source says:
The balloon (e.g., the balloon of a balloon-catheter of a stent-delivery system) was advanced to a site to be treated (e.g., an occluded or weakened section of a blood vessel to be opened up or supported by a stent) in the body of a subject and inflated to a desired inflation diameter. Before, during, and/or after inflation of the balloon, the balloon released the therapeutic composition to, into, or at the treatment site, or to, into, or at an area adjacent thereto, by any suitable mechanism (e.g., concentration gradient, diffusion, pressure, or mechanical force, or a combination thereof). […] The tissue concentration is shown in ng/mg tissue. The coated balloons were evaluated for drug delivery efficiency in an animal study. Drug transfer of the coated balloons into arterial segments were evaluated using harvested pig arteries. The arterial wall was separated after animal study. The arterial walls were then stored in an individual labeled vial. All samples were kept on dry ice until stored in the −80° C. freezer. All samples were then frozen to […] prior to being analyzed.

[10] abbreviates: pig, whole blood, other: drug eluting stent implanted in coronary artery, Whole blood concentration, SS16 stents, 1 H group.
Where [11] appears, read: pig, whole blood, other: drug eluting stents implanted in coronary arteries, Whole blood concentration, SS16 stents, 1 D group.
Setting [12] is: pig, whole blood, other: drug eluting stents implanted in coronary arteries, Whole blood concentration, SS17 stents, 1 D group.
Setting [13] is: pig, whole blood, other: drug eluting stents implanted in coronary arteries, Whole blood concentration, SS17 stents, 1 H group.

In general, Tmax refers to the time from dosing to the highest level. One may read the solubility as the dissolved amount per volume that the medium holds. Low readings indicate little dissolved substance, high ones much dissolved substance. `COc1ccc(-n2nc(C(N)=O)c3c2C(=O)N(c2ccc(N4CCCCC4=O)cc2)CC3)cc1` [Apixaban]: the Tmax in the series “in vivo [1]” lay within 5 to 10 min. In series [2], the “time the drug content in lung tissue lasted” value is given as “up to 3.5 hours” and the “time the drug content in lungs tissue lasted” value was “up to 1 hours”. Further, the ACT in series [3] is reported as 522. Besides, the solubility in [4] (aqueous buffer, solubility in aqueous buffers, drug alone) was about 28 µg/mL (≈ 60.9 µM). Further, in [4] (water, solubility in water), the solubility is about 28 µg/mL (≈ 60.9 µM).

As to `CC1CNc2c(cccc2S(=O)(=O)N[C@@H](CCCNC(=N)N)C(=O)N2CC[C@@H](C)C[C@@H]2C(=O)O)C1` (some centres unmarked) [Argatroban], in the series with porcine coronary artery [5], the “inhibiting fibrin formation compared to bare metal control stents” value is recorded as “not more effective”. In addition, the Tmax in “in vivo [1]” is about 60 min. For the same compound, in [2], the “time the drug content in lung tissue lasted” value is given as “more than 6 hours”. In series [2], the “time the drug content in lungs tissue lasted” value is reported as “more than 5 hours”. For the same compound, in [3], the ACT is reported as 301. Moreover, the solubility is about 3000 µg/mL (≈ 5900 µM) in “physchem” (aqueous buffer, solubility in aqueous buffers) and about 3000 µg/mL (≈ 5900 µM) in “physchem” (water, solubility in water).

Take `CN1CCCC(n2nc(Cc3ccc(Cl)cc3)c3ccccc3c2=O)CC1` (centres unmarked) [Azelastine, Azelastine hydrochloride]: in the series “in vivo [1]”, the “time the systemic drug in whole blood lasted” value is on record as “up to 2 hours”. Further, the “time the drug content in lungs tissue lasted” value in series [2] was “more than 5 hours”.

For `CCN(CCO)CCCC(C)Nc1ccnc2cc(Cl)ccc12` (centres unmarked) [Hydroxychloroquine, Hydroxychloroquine sulfate], the “time the systemic drug in whole blood lasted” value in the series “in vivo [1]” was “more than 5 hours”. In addition, in series [2], the “time the drug content in lungs tissue lasted” value is given as “more than 5 hours”.

Take `O=C(NC[C@H]1CN(c2ccc(N3CCOCC3=O)cc2)C(=O)O1)c1ccc(Cl)s1` [Rivaroxaban]: the “inhibiting fibrin formation compared to control” value with porcine coronary artery [5] (at 7 days and/or at 28 days, faster release formulation) is “more effective”. Moreover, the “inhibiting fibrin formation compared to bare metal control stents” value with porcine coronary artery [5] is recorded as “more effective”. The concentration at 15 min in “in vivo [6]” (other: drug eluting stent implanted in coronary artery) is 3.32 ng/mL; in series [7] (setting [12]), 24 ng/mL; in series [7] (setting [13]) it was 10.8 ng/mL; in [9] (coronary artery wall), 1230 ± 370 ng/g; in series [9] (superficial femoral artery wall), 40600 ± 64700 ng/g. The concentration at 150 min in “in vivo [6]” (other: drug eluting stents implanted in coronary arteries) came out at 2.08 ng/mL; in series [7] (pig, whole blood, other: drug eluting stents implanted in coronary arteries, Whole blood concentration, SS17 stents, 1 D group, 150 min.), 11.3 ng/mL. The Whole blood concentration entry is reported as “BQL” in series [7] (SS16 stents, 1 D group, 24 hr (Day 1)); “BQL” in series [7] (SS16 stents, 1 D group, Pre-implant); “BQL” in series [7] (SS16 stents, 1 H group, Pre-implant); “BQL” in series [7] (SS16 stents, 7 D group, Day 7); “BQL” in series [7] (SS16 stents, 7 D group, Pre-implant); “BQL” in series [7] (SS16 stents, 28 D group, Day 28). Further, the Whole blood concentration entry is reported as “BQL” in [7] (SS16 stents, 28 D group, Pre-implant); “BQL” in series [7] (SS17 stents, 1 D group, Pre-implant); “BQL” in series [7] (SS17 stents, 1 H group, Pre-implant); “BQL” in [7] (SS17 stents, 7 D group, Day 7); “BQL” in series [7] (SS17 stents, 7 D group, Pre-implant); “BQL” in series [7] (SS17 stents, 28 D group, Day 28). Besides, the Whole blood concentration entry in series [7] (SS17 stents, 28 D group, Pre-implant) is on record as “BQL”. Moreover, in series [7] (drug eluting stents SS15, SS16, SS17), the “systemic blood concentration versus systemic therapeutic concentrations (Cmax, Cmean, Ctrough)” value is recorded as “below”. Besides, the concentration at 30 min in series [7] (pig, whole blood, other: drug eluting stent implanted in coronary artery, Whole blood concentration, SS16 stents, 1 D group) turned out to be 3.76 ng/mL; in [7] (setting [10]), 3.34 ng/mL; in series [7] (setting [12]) it was 20.1 ng/mL; in series [7] (setting [13]) it was 8.44 ng/mL. In addition, the concentration at 45 min in series [7] (setting [10]) came to 3.68 ng/mL; in [7] (setting [11]), 3.47 ng/mL; in [7] (setting [12]), 19.5 ng/mL; in series [7] (setting [13]), 7.82 ng/mL. In addition, the concentration at 180 min stood at 8.39 ng/mL in series [7] (pig, whole blood, other: drug eluting stent implanted in coronary artery, Whole blood concentration, SS17 stents, 1 D group) and 1.95 ng/mL in series [7] (setting [11]). Moreover, in series [7] (pig, whole blood, other: drug eluting stent implanted in coronary artery, Whole blood concentration, SS17 stents, 1 D group, 4 hr), the concentration at 4 h is 3.74 ng/mL. Also, the concentration at 5 h in series [7] (pig, whole blood, other: drug eluting stent implanted in coronary artery, Whole blood concentration, SS17 stents, 1 D group, 5 hr) is 3.9 ng/mL. The concentration at 6 h in series [7] (pig, whole blood, other: drug eluting stent implanted in coronary artery, Whole blood concentration, SS17 stents, 1 D group, 6 hr) worked out at 3.1 ng/mL. Besides, the concentration at 24 h in series [7] (pig, whole blood, other: drug eluting stent implanted in coronary artery, Whole blood concentration, SS17 stents, 1 D group, 24 hr (Day 1)) is 0.16 ng/mL. Further, the concentration at 60 min in series [7] (setting [11]) came to 2.61 ng/mL; in series [7] (pig, whole blood, other: drug eluting stents implanted in coronary arteries, Whole blood concentration, SS16 stents, 1 H group) it was 4.08 ng/mL; in series [7] (setting [12]), 18.5 ng/mL; in [7] (setting [13]) it was 7.54 ng/mL. Moreover, the values for the concentration at 90 min in [7] (setting [11]) and in series [7] (setting [12]) were 2.43 ng/mL and 15 ng/mL, respectively. The concentration at 120 min turned out to be 2.3 ng/mL in [7] (setting [11]) and 11.6 ng/mL in [7] (setting [12]). Also, in [7] (pig, whole blood, other: drug eluting stents implanted in coronary arteries, Whole blood concentration, SS16 stents, 1 D group, 4 hr), the concentration at 4 hr was 1.23 ng/mL. In series [7] (pig, whole blood, other: drug eluting stents implanted in coronary arteries, Whole blood concentration, SS16 stents, 1 D group, 5 hr), this compound had a concentration at 5 hr of 1.11 ng/mL. The same compound registered a concentration at 6 hr in series [7] (pig, whole blood, other: drug eluting stents implanted in coronary arteries, Whole blood concentration, SS16 stents, 1 D group, 6 hr) of 1.03 ng/mL. The “inhibiting smooth muscle cell proliferation (LLL) compared to bare metal control stents” value in the series with porcine coronary artery [8] was “not more effective”.

Regarding Dalteparin, in the series with porcine coronary artery [5], the “inhibiting fibrin formation compared to bare metal control stents” value is “not more effective”. In addition, the “inhibiting smooth muscle cell proliferation (LLL) compared to bare metal control stents” value in the series on porcine coronary artery [8] is given as “not more effective”.
